Measurements published in ChEMBL document CHEMBL6127093, “The evolution of small-molecule Akt inhibitors from hit to clinical candidate” (Eur J Med Chem, 2024).
Values after ≈ are worked out from the molar mass of the structure shown. One block for each compound: values may come before it.

Legend:
KOSC-2 = assay: Antiproliferative activity against human KOSC-2 cells assessed as reduction in cell viability incubated for 24 hrs by MTT assay; type: functional, cell-based; conditions: KOSC-2, 24 h
in vivo [1] = conditions: mouse
in vivo [2] = conditions: rat
[3] = Antiproliferative activity against human 95-D cells assessed as reduction in cell viability incubated for 24 hrs by MTT assay; type: functional, cell-based
[4] = Antiproliferative activity against human KHOS-240S cells assessed as reduction in cell viability incubated for 24 hrs by MTT assay; type: functional, cell-based
[5] = Microsomal stability in human liver microsomes assessed as half life; type: ADME, Microsome
[6] = Oral bioavailability in CD-1 mouse at 5 mg/kg measured for 24 hrs by LC-MS/MS analysis; type: ADME, organism-based; conditions: in vivo
[7] = Half life in Sprague-Dawley rat at 2 mg/kg, iv by LC-MS/MS analysis; type: ADME, organism-based; conditions: in vivo
[8] = Aqueous solubility of compound at pH 7.4; type: physicochemical; conditions: buffer
[9] = Metabolic stability in rat hepatocyte assessed as intrinsic clearance; type: ADME, cell-based; conditions: hepatocytes
[10] = Metabolic stability in mouse hepatocyte assessed as intrinsic clearance; type: ADME, cell-based; conditions: hepatocytes
[11] = Volume of distribution at steady state in dog at 1 mg/kg, iv; type: ADME, organism-based, Canis lupus familiaris; conditions: in vivo, read-out: Vdss
[12] = Volume of distribution at steady state in mouse at 5 mg/kg, iv; type: ADME, organism-based; conditions: in vivo, read-out: Vdss
[13] = Clearance in Beagle dog at 0.5 mg/kg, iv; type: ADME, organism-based, Canis lupus familiaris; conditions: in vivo
[14] = Volume of distribution at steady state in rat at 1 mg/kg, iv; type: ADME, organism-based; conditions: in vivo, read-out: Vdss
PC-3 [15] = assay: Antitumor activity against human PC-3 cells xenografted in CD-1 mouse assessed as tumor growth inhibition at 100 mg/kg, po bid administration relative to control; type: functional; conditions: read-out: TGI
PC-3 [16] = assay: Antitumor activity against human PC-3 cells xenografted in mouse assessed as inhibition of tumor growth at 50 mg/kg, po administered for 15 days relative to control; type: functional; conditions: PC-3, 360 h, time 15 day, read-out: TGI

Compound: NC(=O)c1cccc2c(N[C@H](CN3CCC3)c3ccc(Cl)c(C(F)(F)F)c3)ncnc12 [RUPITASERTIB]
- bioavailability [6]: 10%
- half-life [7]: 3.9 h
- solubility [8]: 17 µg/mL (≈ 37.8 µM)

Compound: Cc1c(NCCN2CCCC2)cc(C(=O)CCC(F)(F)F)cc1N1CCN(c2ncnc3[nH]nc(Br)c23)CC1 [XL-418]
- inhibition in vivo at 100 mg/kg (PC-3 [15]): 90%
- inhibition in vivo at 50 mg/kg (PC-3 [16]): 52%

Compound: Cn1nccc1-c1ccc(C(=O)N[C@@H]2CNCC[C@H]2c2ccc(F)c(F)c2)c(F)c1
- IC50 (KOSC-2): 7.47 µM
- IC50 [3]: 1.03 µM
- IC50 [4]: 7.47 µM

Continued, in another order:

- clearance (in vivo [1]): 86 mL/min/kg
- clearance (in vivo [2]): 37 mL/min/kg
Compound: NC1(C(=O)N[C@@H](CCO)c2ccc(Cl)cc2)CCN(c2ncnc3[nH]ccc23)CC1 [CAPIVASERTIB]
- IC50 (KOSC-2): 40.4 µM
- IC50 [3]: 2.32 µM
- IC50 [4]: 40.4 µM

- half-life [5]: 0.917 h
Compound: Nc1ncccc1-c1nc2ccc(-c3ccccc3)nc2n1-c1ccc(C2(N)CCC2)cc1 [MIRANSERTIB]

- CLH [9]: 19 µL/min
- CLH [10]: 10 µL/min
- Vd [11]: 2 L/kg
- Vd [12]: 2.8 L/kg
- clearance [13]: 2 mL/min/kg
- Vd [14]: 3.1 L/kg
Compound: NC1(C(=O)NCc2ccc(Cl)cc2)CCN(c2ncnc3[nH]ccc23)CC1
